Reference: US8883862B2, “Method for controlled release of parathyroid hormone from cross-linked hyaluronic acid hydrogel” (Kaohsiung Medical University, priority 2012, dated 2014)
Like-named read-outs stand apart in the source and are kept apart here.

Key:
[1] = Stability of PTH(1-34) under UV exposure (ELISA); format: physicochemical; conditions: 10 minutes of UV exposure
Protocol: The hydrogel was fabricated by the photo-cross linking method. Briefly, 20 mg of methacrylated-hyaluronic acid (MeHA) was dissolved in 650 μL of stock solution (0.9% NaCl/4 mM HCl/0.1% BSA solution) and 100 μL of 0.07% (w/v) 12959 (Ciba specialty chemicals, Taiwan) was added to the solution. After complete dissolution, 250 μL of PTH(1-34) stock solution (10^−5 M) was added to the polymer solution and mixed completely. The mixture was transferred into glass syringe and exposed under UV light for 10 minutes. The resulting PTH/CLMH gel was washed with distilled water and then lyophilized. The morphology of the gel was examined using scanning electron microscopy (SEM) after gold coating of the samples on a stub.
The encapsulation and release kinetics are as follows: 200 μL of PTH(1-34)-loaded CLMH hydrogel (PTH/CLMH gel) suspended in 1 mL of 0.9% NaCl was crushed completely and collected the supernatant. Concentration of PTH(1-34) on the supernatant was measured using a commercially available PTH(1-34) ELISA kit following the manufacturer's instructions.

[2] = system: papain-induced OA; test: Papain-induced OA in rat knees, histology of articular cartilage (GAG, type II collagen); format: in vivo, Rats; conditions: OA group; intra-articular; PTH(1-34) 10 nM every 3 days, hydrogels every 10 days
Protocol: Rats were divided into the following 2 groups: OA group (OA induction with or without PTH(1-34) treatment) (n=5), non-OA group (n=5) injected with vehicle without PTH(1-34) treatment and OA induction. The right knees were the study joints. OA was induced in the right knees of rats in the OA groups with intra-articular injections of 20 ul of 4% papain solution and 20 ul of 0.03M cysteine. The injections were given with a 23-gauge needle via the patellar tendon on days 1, 4, and 7 of the example. In the OA group, after OA induction, the right knees were injected intra-articularly with 40 ul of 10 nM PTH(1-34) every 3 days or PTH/CLMH or CLMH every 10 days until rats were sacrificed. In the non-OA group, the same treatments were performed but without OA induction. Rats from each group were sacrificed by CO2 inhalation. Histologic analysis: After rats were sacrificed, the knees were harvested, and the tibia plateaus with articular cartilage were collected and fixed with 10% neutral buffered formalin prior to histologic preparation. The samples were then decalcified in 0.05M EDTA. The decalcified tibia articular samples were paraffin embedded, and […] microsections in the coronary plane were prepared. GAG was stained with Safranin O-fast green (1% Safranin 0 counterstained with 0.75% hematoxylin and then 1% fast green; Sigma) (dark color). […]

[3] = pulmonary route, cited from earlier work
[4] = system: MC3T3-E1 (osteoblastic cells); test: Bioactivity of released PTH(1-34): cAMP contents in cells; format: cell-based; conditions: PTH(1-34) released from PTH/CLMH hydrogel at 2, 3, 4, 9, 10 and 11 days; 20 mins incubation
Protocol: The activity of controlled released PTH(1-34) was determined by measuring cAMP contents in cells treated with released PTH(1-34). For these examples, the MC3T3-E1 (osteoblastic cells) was cultured in phenol red-free α-MEM supplemented with 10% fetal bovine serum and […] ascorbic acid. The Cells were seeded into 24-well plates at a density of 50,000 cells/well. 0.25 mM isobutylmethylxanthine was used to inhibit cAMP degradation and incubated with released PTH(1-34) for 20 mins. The cells were lysed directly in the medium by adding 0.1N HCl. Intracellular cAMP was measured using a commercially available immunoassay kit (cayman) following the manufacturer's instructions.
Statistical analysis: Three independent cultures for biochemical analysis were tested. Each example was repeated at least three times, and data (expressed as mean±SEM) from a representative example are shown. Statistical significance was evaluated by one-way analysis of variance (ANOVA), and multiple comparisons were performed by Student's t-test. A p<0.05 was considered significant.

## CC[C@H](C)[C@H](NC(=O)[C@H](CCC(=O)O)NC(=O)[C@H](CO)NC(=O)[C@@H](NC(=O)[C@@H](N)CO)C(C)C)C(=O)N[C@@H](CCC(N)=O)C(=O)N[C@@H](CC(C)C)C(=O)N[C@@H](CCSC)C(=O)N[C@@H](Cc1cnc[nH]1)C(=O)N[C@@H](CC(N)=O)C(=O)N[C@@H](CC(C)C)C(=O)NCC(=O)N[C@@H](CCCCN)C(=O)N[C@@H](Cc1cnc[nH]1)C(=O)N[C@@H](CC(C)C)C(=O)N[C@@H](CC(N)=O)C(=O)N[C@@H](CO)C(=O)N[C@@H](CCSC)C(=O)N[C@@H](CCC(=O)O)C(=O)N[C@@H](CCCN=C(N)N)C(=O)N[C@H](C(=O)N[C@@H](CCC(=O)O)C(=O)N[C@@H](Cc1c[nH]c2ccccc12)C(=O)N[C@@H](CC(C)C)C(=O)N[C@@H](CCCN=C(N)N)C(=O)N[C@@H](CCCCN)C(=O)N[C@@H](CCCCN)C(=O)N[C@@H](CC(C)C)C(=O)N[C@@H](CCC(N)=O)C(=O)N[C@@H](CC(=O)O)C(=O)N[C@H](C(=O)N[C@@H](Cc1cnc[nH]1)C(=O)N[C@@H](CC(N)=O)C(=O)N[C@@H](Cc1ccccc1)C(=O)O)C(C)C)C(C)C [PTH(1-34), teriparatide]
[1]
  stability of PTH(1-34) under UV exposure: no significant adverse effect
[2]
  level of GAG in OA articular cartilage: could reverse papain-induced OA changes by increasing GAG level
[3]; inhalation of dry powders
  bioavailability: 34%
[3]; intratracheal instillation
  bioavailability: 40%
[4]
  expression of cAMP: increased expression of cAMP
